Assays:
human CB-2 receptor = biological target: T1, human CB-2 receptor (Homo sapiens, UniProt P34972); assay: Binding assay, cannabinoid CB2 receptor ([3H]-CP-55,940 displacement); settings: test concentration 0.2 μM (superscript a); read-out: CB2 binding percent inhibition
T1 construct: expressed in transfected cells; host or cells: SK-N-MC cells, pcDNA3 CB-2 (human), semi-purified membranes
Outline: (§1)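 Membranes from SK-N-MC cells stably expressing human CB-1 or CB-2 were incubated 90 min at 30° C with 0.2 nM [3H]-CP-55,940 in pH 7.5 Tris buffer with fatty-acid-free BSA; 10 uM WIN 55,212 defined non-specific binding. Filter-bound counts gave IC50 by linear regression, or percent inhibition at 0.2, 1 or 10 μM.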

human CB1 receptor = human CB1 receptor (Homo sapiens, UniProt P21554); assay: Binding assay, cannabinoid CB1 receptor ([3H]-CP-55,940 displacement); parameters: expressed in transfected cells; host or cells: SK-N-MC cells, pcDNA3 CB-1 (human), semi-purified membranes; settings: test concentration 0.2 μM (superscript a); read-out: CB1 binding percent inhibition
Outline: as §1

T1 sequence (P34972 whole entry): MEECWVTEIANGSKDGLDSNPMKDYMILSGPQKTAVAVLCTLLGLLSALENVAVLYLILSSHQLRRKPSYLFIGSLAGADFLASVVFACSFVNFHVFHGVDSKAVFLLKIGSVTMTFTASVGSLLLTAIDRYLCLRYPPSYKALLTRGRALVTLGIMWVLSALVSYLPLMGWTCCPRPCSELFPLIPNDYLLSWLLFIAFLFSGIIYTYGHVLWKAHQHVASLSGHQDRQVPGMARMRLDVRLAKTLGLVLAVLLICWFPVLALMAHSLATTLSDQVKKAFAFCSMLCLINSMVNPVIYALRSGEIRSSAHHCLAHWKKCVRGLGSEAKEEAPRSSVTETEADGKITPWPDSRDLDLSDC
human CB1 receptor, sequence (P21554 whole entry): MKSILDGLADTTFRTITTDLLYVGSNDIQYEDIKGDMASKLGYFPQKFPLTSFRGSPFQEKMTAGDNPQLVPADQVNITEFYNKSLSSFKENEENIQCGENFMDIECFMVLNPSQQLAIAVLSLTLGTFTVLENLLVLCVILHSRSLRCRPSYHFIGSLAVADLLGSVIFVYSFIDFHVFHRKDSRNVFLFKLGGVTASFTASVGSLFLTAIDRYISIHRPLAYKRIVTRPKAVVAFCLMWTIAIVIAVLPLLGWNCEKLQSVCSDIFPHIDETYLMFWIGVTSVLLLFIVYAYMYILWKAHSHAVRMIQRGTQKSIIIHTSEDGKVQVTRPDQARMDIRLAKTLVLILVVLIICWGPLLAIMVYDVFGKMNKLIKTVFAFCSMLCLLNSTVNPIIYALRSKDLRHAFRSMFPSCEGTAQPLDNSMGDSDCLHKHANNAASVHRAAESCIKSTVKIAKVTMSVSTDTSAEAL

Row | Compound | inhibition at 0.2 µM (human CB-2 receptor) [%] | inhibition at 0.2 µM (human CB1 receptor) [%]
1 | O=C(NN1CCCC1)c1nn(-c2ccc(Cl)cc2)c2c1CSC/C2=C\c1ccc(F)cc1 [Cpd 102, (7Z)-1-(4-chloro-phenyl)-7-(4-fluoro-benzylidene)-1,4,6,7-tetrahydro-thiopyrano[4,3-c]pyrazole-3-carboxylic acid pyrrolidin-1-ylamide] | 23 | 76
2 | O=C(NN1CC2CCCC2C1)c1nn(-c2ccc(Cl)cc2)c2c1CSC/C2=C\c1ccc(F)cc1 (stereo not drawn) [Cpd 103, (7Z)-1-(4-chloro-phenyl)-7-(4-fluoro-benzylidene)-1,4,6,7-tetrahydro-thiopyrano[4,3-c]pyrazole-3-carboxylic acid (hexahydro-cyclopenta[c]pyrrol-2-yl)-amide] | 5 | 62
3 | O=C(NN1CC2CCCC2C1)c1nn(-c2ccc(Cl)cc2Cl)c2c1CS(=O)(=O)C/C2=C\c1ccc(F)cc1 (stereo not drawn) [Cpd 104, (7Z)-1-(2,4-dichloro-phenyl)-7-(4-fluoro-benzylidene)-5,5-dioxo-4,5,6,7-tetrahydro-1H-5λ^6-thiopyrano[4,3-c]pyrazole-3-carboxylic acid (hexahydro-cyclopenta[c]pyrrol-2-yl)-amide] | 10 | 76
4 | O=C(NN1CC2CCCC2C1)c1nn(-c2ccc(F)cc2F)c2c1CS(=O)(=O)C/C2=C\c1ccc(F)cc1 (stereo not drawn) [Cpd 105, (7Z)-1-(2,4-difluoro-phenyl)-7-(4-fluoro-benzylidene)-5,5-dioxo-4,5,6,7-tetrahydro-1H-5λ^6-thiopyrano[4,3-c]pyrazole-3-carboxylic acid (hexahydro-cyclopenta[c]pyrrol-2-yl)-amide] | 11 | 50
5 | O=C(NN1CCCCC1)c1nn(-c2ccc(F)cc2F)c2c1CS(=O)(=O)C/C2=C\c1ccc(F)cc1 [Cpd 106, (7Z)-1-(2,4-difluoro-phenyl)-7-(4-fluoro-benzylidene)-5,5-dioxo-4,5,6,7-tetrahydro-1H-5λ^6-thiopyrano[4,3-c]pyrazole-3-carboxylic acid piperidin-1-ylamide] | 6 | 32
6 | O=C(NN1CCCCCC1)c1nn(-c2ccc(Cl)cc2Cl)c2c1CS(=O)(=O)C/C2=C\c1ccc(F)cc1 [Cpd 107, (7Z)-1-(2,4-dichloro-phenyl)-7-(4-fluoro-benzylidene)-5,5-dioxo-4,5,6,7-tetrahydro-1H-5λ^6-thiopyrano[4,3-c]pyrazole-3-carboxylic acid azepan-1-ylamide] | 23 | 92
7 | CC1CCCC(C)N1NC(=O)c1nn(-c2ccc(Cl)cc2Cl)c2c1CS(=O)(=O)C/C2=C\c1ccc(F)cc1 (stereo not drawn) [Cpd 108, (7Z)-1-(2,4-dichloro-phenyl)-7-(4-fluoro-benzylidene)-5,5-dioxo-4,5,6,7-tetrahydro-1H-5λ^6-thiopyrano[4,3-c]pyrazole-3-carboxylic acid (2,6-dimethyl-piperidin-1-yl)-amide] | 18 | 88
8 | CN1CCN(NC(=O)c2nn(-c3ccc(Cl)cc3Cl)c3c2CS(=O)(=O)C/C3=C\c2ccc(F)cc2)CC1 [Cpd 109, (7Z)-1-(2,4-dichloro-phenyl)-7-(4-fluoro-benzylidene)-5,5-dioxo-4,5,6,7-tetrahydro-1H-5λ^6-thiopyrano[4,3-c]pyrazole-3-carboxylic acid (4-methyl-piperazin-1-yl)-amide] | 6 | 4
9 | O=C(NN1CCN(CCO)CC1)c1nn(-c2ccc(Cl)cc2Cl)c2c1CS(=O)(=O)C/C2=C\c1ccc(F)cc1 [Cpd 110, (7Z)-1-(2,4-dichloro-phenyl)-7-(4-fluoro-benzylidene)-5,5-dioxo-4,5,6,7-tetrahydro-1H-5λ^6-thiopyrano[4,3-c]pyrazole-3-carboxylic acid [4-(2-hydroxy-ethyl)-piperazin-1-yl]-amide] | 7 | 13

Source: US7524964B2, “Tetrahydrothiopyrano pyrazole cannabinoid modulators” (Janssen Pharmaceutica NV, priority 2005, dated 2009)
